{"source": "patent US20040152903A1", "about": "“6-chloro-3-pyridylmethylpropylamine derivatives, preparation process thereof and bactericides” (priority 2004, published 2004)", "key": {"[1]": {"system": "wheat powdery mildew", "assay": "Permeable mobility fungicidal effect test in leaf section of wheat powdery mildew", "format": "in vivo", "details": "length of non-contracted area relative to compound (m-2); 200 mg/l, 0.5 μl applied to wheat leaf (Abukumawase)", "method": "(Permeable Mobility Fungicidal Effect Test in Leaf Section of Wheat Powdery Mildew) In the test example 4, permeable mobility fungicidal effect test was performed on the leaf section of wheat powdery mildew with regard to the compounds I-1 to 27 according to the present invention and the comparative compounds (a) to (d), and (m-1) to (m-3) with the method described later. <Test Method> The compound in the form of a wettable powder obtained by Formulation 2 or the like was diluted and suspended with water to a predetermined concentration (200 mg/l), and 0.5 μl of the suspension was applied to a 2 to 3 cm leaf portion from the root of the three leaves of the 4th to 4.5th leaf period wheat (variety: Abukumawase) cultured by using a square plastic pot (size: 6.4 cm×6.4 cm). After these wheat leaves were subject to still standing in a glass house (temperature: 20 to 24° C., relative humidity: 20 to 70 RH) for one day, the spores of wheat powdery mildew were inoculated over the leaves by sprinkling the same with a brush from an infected leaf, a disease was contracted in the same glass house. The length of a non-contracted area generated from the applied portion to the direction of the leaf top was measured, and a relative mobility to the compound (m-2) was calculated with the following calculation […] by using the comparative compound (m-2) as a standard compound. Relative mobility=(Length of non-contracted area in each chemical section (cm)/Length of non-contracted area of compound (m-2) (cm)) (Equation 4)"}, "[2]": {"system": "cucumber powdery mildew", "assay": "Test of control effect on cucumber powdery mildew", "format": "in vivo", "details": "wettable powder 100 mg/l, 100 liters/10 a, cucumber (Sagamihanpakufushinari), examined 9th to 14th day after inoculation", "method": "(Test of Control Effect on Cucumber Powdery Mildew) The wettable powders formulated by using each of the compounds I-1 to 27 according to the present invention and the comparative compounds (a) to (d), (m-1) and (m-3) were each diluted and suspended with water to a predetermined concentration (100 mg/l), the suspension was sprinkled over the first to the second leaf period cucumbers (variety: “[…]”) cultivated by using a square plastic pot (size: 6.4 cm×6.4 cm) in a rate of 100 liters/10 a (ares). After the sprinkled leaves were air-dried, the spores were inoculated over the leaves by sprinkling the same with a brush from an infected leaf, a disease was contracted in a glass house (temperature: 20 to 24° C., relative humidity: 20 to 70 RH). On the 9th to 14th day after the inoculation, the infection degree was examined according to the following scale and the control value of each compound was calculated by the following calculation equation 2: (Examination Scale) [table]"}, "[3]": {"system": "Septoria tritici", "assay": "Antifungal activity test (PDA plate, hypha extension inhibition)", "format": "cell-based", "details": "100 ppm in PDA culture medium", "method": "(§1) (Antifungal Activity Test against Various Pathogenic Fungi) For each of the compounds I-1 to 27 of the present invention and the comparative compounds (a) to (d), (m-1) and (m-3), 20 mg was weighed and dissolved in 2 ml of dimethylsulfoxide, and a double dilution row in 10 steps was prepared by further using dimethylsulfoxide. A 0.6 ml portion of these solutions was each added to 60 ml of a PDA culture medium (potato-dextrose-agar culture medium) at about 60° C., they were well mixed in a 100 ml Erlenmeyer flask, the solution was poured into a schale and was solidified, the plate culture media containing the compounds according to the present invention with final concentrations of 100, 50.0, 25.0, 12.5, 6.3, 3.2, 1.6, 0.8, 0.4 and 0.2 mg/l were prepared. On the other hand, the specimen bacteria cultured on the plate culture media beforehand was punched by a 4 mm diameter cork borer, and was inoculated on the plate culture media containing the aforementioned chemicals. After the inoculation, the bacteria were cultured at the optimum growth temperature of each bacterium for 1 to 7 days (for this optimum growth temperature, LIST OF CULTURES 1996 Microorganisms 10th edition published by Fermentation Research Institute (Foundation) can be referred to.), and the growth of the bacteria was measured by the diameter of a colony. […] R=100(dc−dt)/dc (Equation 3) [wherein each symbol is shown as follows: R=Hypha extension inhibition rate (%), dc=Diameter of colony on no-treated plate, dt=Diameter of colony on chemical-treated plate.] The results obtained above was evaluated in 5 steps in accordance with the following examination scale. <Growth Inhibition> 5: Hypha extension inhibition rate of 90% or more 4: Hypha extension inhibition rate of from 70% to less than 90% 3: […] 2: […] In addition, the abbreviations in Table 10 are as follows: S.t: Septoria tritici"}, "[4]": {"system": "wheat powdery mildew", "assay": "Test of control effect on wheat powdery mildew", "format": "in vivo", "design": "Control Value: scale not given here", "details": "wettable powder 125 mg/l, 100 liters/10 a, wheat seedlings (Nourin 64), examined 9th to 14th day after inoculation", "method": "(Test of Control Effect on Wheat Powdery Mildew) Wettable powders were prepared from compounds of the present invention I-1 to I-27 and comparative compounds (a) to (d), (m-1) and (m-3). The obtained wettable powder was diluted and suspended with water to provide the predetermined concentration (125 mg/l), and was sprinkled onto seedlings of wheat (variety: “Nourin 64”) at the first to the second leaf period which were cultivated using square plastic pots (size: 6.4 cm×6.4 cm) in a rate of 100 liters/10 a (ares). After drying the sprinkled leaves with air, a suspension of wheat powdery mildew spores taken from infected leaves was inoculated by spraying onto the sprinkled leaves. They were supervised in a green house (temperature: 20 to 24° C., relative humidity: 20 to 70 RH). On the 9th to 14th day after the inoculation, the infection degree was examined according to the following scale and the control value of each compound was calculated by the following calculation equation 1. [table]"}, "[5]": {"system": "Botrytis cinerea", "assay": "Antifungal activity test (PDA plate, hypha extension inhibition)", "format": "cell-based", "details": "1.6 ppm in PDA culture medium", "method": "as §1, with “B.c: Botrytis cinerea” for “S.t: Septoria tritici”"}, "[6]": {"system": "Leptosphaeria nodorum", "assay": "Antifungal activity test (PDA plate, hypha extension inhibition)", "format": "cell-based", "details": "0.8 ppm in PDA culture medium", "method": "as §1, with “L.n: Leptosphaeria nodorum” for “S.t: Septoria tritici”"}}, "data": [{"smiles": "CC(Cc1ccc(C(F)(F)F)cc1F)CN(C)Cc1ccc(Cl)nc1", "note": "(stereo not shown) [Compound I-8]", "values": [{"measurement": "Relative Mobility", "setting": "[1]", "value": 5}, {"measurement": "Control Value", "setting": "[2]", "value": 100}, {"measurement": "Growth Inhibition S.t (100)", "setting": "[3]", "value": "4 (Hypha extension inhibition rate of from 70% to less than 90%)"}, {"measurement": "Control Value", "setting": "[4]", "value": 100}, {"measurement": "Growth Inhibition B.c (1.6)", "setting": "[5]", "value": "4 (Hypha extension inhibition rate of from 70% to less than 90%)"}]}, {"smiles": "CC(Cc1ccc(F)c(OC(F)(F)F)c1)CN(C)Cc1ccc(Cl)nc1", "note": "(stereo not shown) [Compound I-16]", "values": [{"measurement": "Relative Mobility", "setting": "[1]", "value": 9}, {"measurement": "Growth Inhibition L.n (0.8)", "setting": "[6]", "value": "5 (Hypha extension inhibition rate of 90% or more)"}, {"measurement": "Control Value", "setting": "[2]", "value": 100}, {"measurement": "Control Value", "setting": "[4]", "value": 100}, {"measurement": "Growth Inhibition B.c (1.6)", "setting": "[5]", "value": "4 (Hypha extension inhibition rate of from 70% to less than 90%)"}]}]}
